In paper PMC11477717, “Synthesis of Carborane–Thiazole Conjugates as Tyrosinase and 11β-Hydroxysteroid Dehydrogenase Inhibitors: Antiproliferative Activity and Molecular Docking Studies” (Molecules, 2024):

What follows are substances tested on MDA-MB-231 (human breast adenocarcinoma) (assay: MTT antiproliferative assay, MDA-MB-231). Conditions: MTT, 72 h, MDA-MB-231 cells; read-out: IC50 ± SD MDA-MB-231.
Format: cell-based
Method: (§1) All cell lines were obtained from ATCC, and all chemicals were purchased from Sigma-Aldrich, St. Louis, MO, USA. […] All media were supplemented with antibiotic and antimycotic solutions, according to the manufacturers’ instructions. MTT cytotoxicity assessments were performed as described previously. […] The cells counted using an automated cell counter (Countess® II FL, Invitrogen by Thermo Fisher Scientific Inc., Waltham, MA, USA) were plated in 96-well plates (Nunc Edge 2F, Thermo Fisher Scientific Inc.) at a density of 0.1 × 10^4 per well. After an additional 72 h, cells underwent an MTT cytotoxicity assay (see below). The IC50 values were calculated using ED50plus v 1.0 freeware software (Instituto Nacional de Enfermedades Respiratorias, Mexico City, Mexico). Each cell line was tested in three independent replicates.
(§2) After the incubation time was complete, the medium was removed and crystals of formazan were solubilized in pure isopropanol. The absorbance readout was conducted immediately using a plate reader, Multiskan Spectrum, at 570 nm (Thermo Fisher Scientific Inc., Waltham, MA, USA). The background optical density was measured in the wells filled with the culture medium, without any cells.

Substance	IC50
2-(2-(1,2-Dicarba-closo-Dodecaboranylmethylene)Hydrazinyl)-4-(4-Nitrophenyl)Thiazole [4g]	6.96 ± 0.74 µM
4-(4-Chlorophenyl)-2-(2-(1,2-Dicarba-closo-Dodecaboranylmethylene)Hydrazinyl)Thiazole [4a]	6.54 ± 0.52 µM
2-(2-(1,2-Dicarba-closo-Dodecaboranylmethylene)Hydrazinyl)-4-(3,4-Dichlorophenyl)Thiazole [4e]	6.99 ± 2.27 µM

Same assay, conditions: selectivity index = IC50 normal cell line / IC50 cancer cell line

Substance	SI HUVEC/ MDA-MB-231
2-(2-(1,2-Dicarba-closo-Dodecaboranylmethylene)Hydrazinyl)-4-(4-Nitrophenyl)Thiazole [4g]	>1.44
4-(4-Chlorophenyl)-2-(2-(1,2-Dicarba-closo-Dodecaboranylmethylene)Hydrazinyl)Thiazole [4a]	1.05
2-(2-(1,2-Dicarba-closo-Dodecaboranylmethylene)Hydrazinyl)-4-(3,4-Dichlorophenyl)Thiazole [4e]	1.12

The substances below were run against T1, mushroom tyrosinase (Agaricus bisporus, UniProt C7FF04) (assay: Kinetic analysis of the inhibition of tyrosinase (Lineweaver-Burk)). Conditions: Lineweaver-Burk plots; compound at 0.05 mM.
T1 construct: purchased Sigma-Aldrich
Format: biochemical
Method: A series of experiments were performed to determine the inhibition kinetics of compounds by following the already reported method. The inhibitor concentrations for compounds were 50 and 100 µM. The substrate L-DOPA concentration was between 100 and 250 µM in all kinetic studies. Maximal initial velocity was determined from the initial linear portion of absorbance up to ten minutes after the addition of the enzyme. The inhibition type of the enzyme, Michaelis constant (KM), and maximal velocity (Vmax) were determined by Lineweaver–Burk plots of the inverse of velocities (1/V) versus the inverse of substrate concentration 1/[L-DOPA] mM^−1.

T1 sequence (C7FF04 1-392 limits assumed): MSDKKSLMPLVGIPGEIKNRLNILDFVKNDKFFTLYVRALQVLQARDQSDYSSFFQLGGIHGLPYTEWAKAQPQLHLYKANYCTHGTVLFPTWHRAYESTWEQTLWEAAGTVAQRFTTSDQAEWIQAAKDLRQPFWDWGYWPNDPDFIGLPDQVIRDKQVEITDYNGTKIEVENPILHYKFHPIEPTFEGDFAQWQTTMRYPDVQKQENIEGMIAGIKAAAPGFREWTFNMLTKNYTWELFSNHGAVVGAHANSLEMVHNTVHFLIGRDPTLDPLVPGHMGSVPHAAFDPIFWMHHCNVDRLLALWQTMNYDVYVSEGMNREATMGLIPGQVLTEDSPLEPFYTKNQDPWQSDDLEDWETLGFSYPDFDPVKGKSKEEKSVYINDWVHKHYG

Substance	Mechanism of Inhibition
2-(2-(1,2-Dicarba-closo-Dodecaboranylmethylene)Hydrazinyl)-4-(4-Nitrophenyl)Thiazole [4g]	Uncompetitive
4-(4-Chlorophenyl)-2-(2-(1,2-Dicarba-closo-Dodecaboranylmethylene)Hydrazinyl)Thiazole [4a]	Mixed
2-(2-(1,2-Dicarba-closo-Dodecaboranylmethylene)Hydrazinyl)-4-(3,4-Dichlorophenyl)Thiazole [4e]	Activator

Same assay, conditions: compound at 0.05 mM; L-DOPA 100-250 µM

Substance	Vmax
2-(2-(1,2-Dicarba-closo-Dodecaboranylmethylene)Hydrazinyl)-4-(4-Nitrophenyl)Thiazole [4g]	0.0521 mM/min
4-(4-Chlorophenyl)-2-(2-(1,2-Dicarba-closo-Dodecaboranylmethylene)Hydrazinyl)Thiazole [4a]	0.1656 mM/min
2-(2-(1,2-Dicarba-closo-Dodecaboranylmethylene)Hydrazinyl)-4-(3,4-Dichlorophenyl)Thiazole [4e]	0.1575 mM/min

What follows are substances tested on A172 (human brain glioblastoma) (assay: MTT antiproliferative assay, A172). Conditions: MTT, 72 h, A172 cells; read-out: IC50 ± SD A172.
Format: cell-based
Method: as §1, §2

Substance	IC50
2-(2-(1,2-Dicarba-closo-Dodecaboranylmethylene)Hydrazinyl)-4-(4-Nitrophenyl)Thiazole [4g]	6.07 ± 1.06 µM
4-(4-Chlorophenyl)-2-(2-(1,2-Dicarba-closo-Dodecaboranylmethylene)Hydrazinyl)Thiazole [4a]	5.77 ± 0.96 µM
2-(2-(1,2-Dicarba-closo-Dodecaboranylmethylene)Hydrazinyl)-4-(3,4-Dichlorophenyl)Thiazole [4e]	6.44 ± 0.6 µM

Same assay, conditions: selectivity index = IC50 normal cell line / IC50 cancer cell line

Substance	SI HUVEC/A172
2-(2-(1,2-Dicarba-closo-Dodecaboranylmethylene)Hydrazinyl)-4-(4-Nitrophenyl)Thiazole [4g]	>1.65
4-(4-Chlorophenyl)-2-(2-(1,2-Dicarba-closo-Dodecaboranylmethylene)Hydrazinyl)Thiazole [4a]	1.19
2-(2-(1,2-Dicarba-closo-Dodecaboranylmethylene)Hydrazinyl)-4-(3,4-Dichlorophenyl)Thiazole [4e]	1.22

The substances below were run on B16F10 (murine melanoma) (assay: MTT antiproliferative assay, B16F10). Conditions: MTT, 72 h, B16F10 cells; read-out: IC50 ± SD B16F10.
Format: cell-based
Method: as §1, §2

Substance	IC50
2-(2-(1,2-Dicarba-closo-Dodecaboranylmethylene)Hydrazinyl)-4-(4-Nitrophenyl)Thiazole [4g]	5.11 µM
4-(4-Chlorophenyl)-2-(2-(1,2-Dicarba-closo-Dodecaboranylmethylene)Hydrazinyl)Thiazole [4a]	5.03 ± 0.69 µM
2-(2-(1,2-Dicarba-closo-Dodecaboranylmethylene)Hydrazinyl)-4-(3,4-Dichlorophenyl)Thiazole [4e]	5.58 ± 0.35 µM

Same assay, conditions: selectivity index = IC50 normal cell line / IC50 cancer cell line

Substance	SI HUVEC/ B16F10
2-(2-(1,2-Dicarba-closo-Dodecaboranylmethylene)Hydrazinyl)-4-(4-Nitrophenyl)Thiazole [4g]	>1.96
4-(4-Chlorophenyl)-2-(2-(1,2-Dicarba-closo-Dodecaboranylmethylene)Hydrazinyl)Thiazole [4a]	1.37
2-(2-(1,2-Dicarba-closo-Dodecaboranylmethylene)Hydrazinyl)-4-(3,4-Dichlorophenyl)Thiazole [4e]	1.41

These substances were tested against T2, 11β-HSD1 (Homo sapiens, UniProt P28845) (assay: Inhibition of 11β-HSD1 assay (cortisone to cortisol, microsomes, cortisol ELISA)). Conditions: 5 inhibitor concentrations, three independent determinations; read-out: IC50 ± SD 11β-HSD1.
T2 construct: tissue XenoTech Lot No. 1410013; host or cells: pooled human liver microsomes
Format: biochemical
Method: L160706125, was obtained from Cloud-Clone Corp. PBS, Lot No. H161008, was obtained from Pan Biotech. […] L191113457, was obtained from Cloud-Clone Corp. […] The microplates were incubated on an orbital shaker for 150 min at 37 °C. […] The quantity of cortisol formed from cortisone was determined using a cortisol ELISA kit, […].

T2 sequence (P28845 whole entry): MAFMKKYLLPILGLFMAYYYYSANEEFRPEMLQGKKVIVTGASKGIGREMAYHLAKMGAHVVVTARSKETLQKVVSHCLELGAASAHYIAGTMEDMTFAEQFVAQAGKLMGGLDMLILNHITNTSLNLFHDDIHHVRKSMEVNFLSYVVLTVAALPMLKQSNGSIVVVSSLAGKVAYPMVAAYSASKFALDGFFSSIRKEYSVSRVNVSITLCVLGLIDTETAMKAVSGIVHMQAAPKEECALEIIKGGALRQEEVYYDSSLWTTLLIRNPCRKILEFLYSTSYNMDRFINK

Substance	IC50
2-(2-(1,2-Dicarba-closo-Dodecaboranylmethylene)Hydrazinyl)-4-(4-Nitrophenyl)Thiazole [4g]	7.05 ± 0.25 µM
4-(4-Chlorophenyl)-2-(2-(1,2-Dicarba-closo-Dodecaboranylmethylene)Hydrazinyl)Thiazole [4a]	7.03 ± 0.53 µM
2-(2-(1,2-Dicarba-closo-Dodecaboranylmethylene)Hydrazinyl)-4-(3,4-Dichlorophenyl)Thiazole [4e]	7.9 ± 1.4 µM

Same assay, conditions: inhibitor 10 µM, 150 min, 37 °C

Substance	% of 11β-HSD1 Inhibition 10 μM
2-(2-(1,2-Dicarba-closo-Dodecaboranylmethylene)Hydrazinyl)-4-(4-Nitrophenyl)Thiazole [4g]	73.51%
4-(4-Chlorophenyl)-2-(2-(1,2-Dicarba-closo-Dodecaboranylmethylene)Hydrazinyl)Thiazole [4a]	60.07%
2-(2-(1,2-Dicarba-closo-Dodecaboranylmethylene)Hydrazinyl)-4-(3,4-Dichlorophenyl)Thiazole [4e]	62.17%

Same assay, conditions: values in SAR summary, unit inferred; read-out: IC50 11β-HSD1 (unit inferred)

Substance	IC50
2-(2-(1,2-Dicarba-closo-Dodecaboranylmethylene)Hydrazinyl)-4-(3,4-Dichlorophenyl)Thiazole [4e]	7.9 to 8.1 µM

What follows are substances tested against T1, mushroom tyrosinase (assay: Mushroom tyrosinase inhibition assay (L-DOPA, dopachrome 475 nm)). Conditions: L-DOPA 0.17 mM, pH 6.8, room temperature; read-out: IC50 ± SD mushroom tyrosinase.
Format: biochemical
Method: The mushroom tyrosinase (Sigma-Aldrich) inhibition was performed following previously reported methods. […] The inhibitor solutions were prepared in DMSO with an initial concentration of 1 mM. Different aliquots were added to the solution containing the buffer, L-DOPA, and EDTA, with the enzyme being added last. […] Ascorbic acid was used as a reference inhibitor with an initial concentration of 1 mM. The IC50 values were calculated from the equation generated via exponential fit of the experimental data.

Substance	IC50
2-(2-(1,2-Dicarba-closo-Dodecaboranylmethylene)Hydrazinyl)-4-(4-Nitrophenyl)Thiazole [4g]	0.105 ± 0.00908 mM
4-(4-Chlorophenyl)-2-(2-(1,2-Dicarba-closo-Dodecaboranylmethylene)Hydrazinyl)Thiazole [4a]	0.13 ± 0.0209 mM
2-(2-(1,2-Dicarba-closo-Dodecaboranylmethylene)Hydrazinyl)-4-(3,4-Dichlorophenyl)Thiazole [4e]	0.142 ± 0.013 mM

Same assay, conditions: rounded values in SAR summary, unit mM; read-out: IC50 tyrosinase inhibition

Substance	IC50
2-(2-(1,2-Dicarba-closo-Dodecaboranylmethylene)Hydrazinyl)-4-(3,4-Dichlorophenyl)Thiazole [4e]	0.142 mM

Each substance was assayed on HUVEC (human umbilical vein endothelial cells) (assay: MTT antiproliferative assay, HUVEC healthy control). Conditions: 72 h, HUVEC normal cells, read-out: IC50 ± SD HUVEC.
Format: cell-based
Method: All cell lines were obtained from ATCC, and all chemicals were purchased from Sigma-Aldrich, St. Louis, MO, USA. Briefly, cells were cultivated in a controlled atmosphere using DMEM medium with fetal bovine serum (FBS) at a final concentration of 10% (A-172), an L15 medium with 15% FBS, cultivated without CO2 (MDA-MB-231), F12K with a heparin final concentration of 0.1 mg/mL, endothelial cell growth supplement with a final concentration of 0.03 mg/mL (HUVEC), and RPMI with 5% FBS. All media were supplemented with antibiotic and antimycotic solutions, according to the manufacturers’ instructions. MTT cytotoxicity assessments were performed as described previously. Briefly, cell lines A172, B16F10, MDA-MB-231, and HUVEC were seeded 24 h prior to the addition of the tested compounds. The cells counted using an automated cell counter (Countess® II FL, Invitrogen by Thermo Fisher Scientific Inc., Waltham, MA, USA) were plated in 96-well plates (Nunc Edge 2F, Thermo Fisher Scientific Inc.) at a density of 0.1 × 10^4 per well. After an additional 72 h, cells underwent an MTT cytotoxicity assay (see below). The IC50 values were calculated using ED50plus v 1.0 freeware software (Instituto Nacional de Enfermedades Respiratorias, Mexico City, Mexico). Each cell line was tested in three independent replicates.
Twenty microliters of an MTT solution (MTT: 3-(4,5-dimethylthiazol-2-yl)-2,5-diphenyl tetrazolium bromide, stock solution: 5 mg/mL) was added to each cell line for 2 h (A172, B16F10, MDA-MB-231, and HUVEC). After the incubation time was complete, the medium was removed and crystals of formazan were solubilized in pure isopropanol. The absorbance readout was conducted immediately using a plate reader, Multiskan Spectrum, at 570 nm (Thermo Fisher Scientific Inc., Waltham, MA, USA). The background optical density was measured in the wells filled with the culture medium, without any cells.

Substance	IC50
2-(2-(1,2-Dicarba-closo-Dodecaboranylmethylene)Hydrazinyl)-4-(4-Nitrophenyl)Thiazole [4g]	> 10 µM
4-(4-Chlorophenyl)-2-(2-(1,2-Dicarba-closo-Dodecaboranylmethylene)Hydrazinyl)Thiazole [4a]	6.87 ± 0.33 µM
2-(2-(1,2-Dicarba-closo-Dodecaboranylmethylene)Hydrazinyl)-4-(3,4-Dichlorophenyl)Thiazole [4e]	7.86 ± 0.61 µM

Each substance was assayed against T3, 11β-HSD2 (Homo sapiens, UniProt P80365) (assay: Inhibition of 11β-HSD2 assay (cortisol to cortisone, microsomes, cortisol ELISA)). Conditions: inhibitor 10 µM, 150 min, 37 °C.
T3 construct: Human kidney microsomes, mixed gender, 0.5 mL, 10 mg/mL, Lot No. 1710160, were obtained from XenoTech; tissue XenoTech Lot No. 1710160; host or cells: human kidney microsomes
T3 sequence (P80365 1-405): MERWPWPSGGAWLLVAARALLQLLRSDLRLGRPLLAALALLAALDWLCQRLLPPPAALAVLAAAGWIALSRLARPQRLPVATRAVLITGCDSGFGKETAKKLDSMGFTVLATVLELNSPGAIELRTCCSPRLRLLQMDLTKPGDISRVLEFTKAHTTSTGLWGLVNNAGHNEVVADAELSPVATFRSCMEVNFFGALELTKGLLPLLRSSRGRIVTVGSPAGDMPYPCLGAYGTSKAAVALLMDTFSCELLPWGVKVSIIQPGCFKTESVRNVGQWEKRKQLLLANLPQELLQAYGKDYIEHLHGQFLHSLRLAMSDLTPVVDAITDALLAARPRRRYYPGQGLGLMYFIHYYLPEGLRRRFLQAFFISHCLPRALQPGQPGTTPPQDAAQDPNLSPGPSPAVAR
Format: biochemical
Method: The Enzyme-Linked Immunosorbent Assay (ELISA) Kit for 11-Beta-Hydroxysteroid Dehydrogenase Type 1, Lot No. L160706125, was obtained from Cloud-Clone Corp. PBS, Lot No. H161008, was obtained from Pan Biotech. […] The Enzyme-Linked Immunosorbent Assay (ELISA) Kit for 11-Beta-Hydroxysteroid Dehydrogenase Type 2, Lot No. L191113457, was obtained from Cloud-Clone Corp.
The oxidation reaction of cortisol to cortisone was carried out on 96-well microtiter plates in the presence of the enzyme 11β-HSD2 in a total volume of 100 µL. To this end, 60 µL of phosphate buffer (pH 7.4), 10 µL of a microsomes(0.12 µg/mL […]) solution in PBS (final quantity 2.5 µg), 20 µL of substrate mixture cortisol/NAD (final concentration 200 nM/2 mM), and 10 µL of the appropriate inhibitor solution (solvent DMSO/water 1/99, final concentration 10 µM) were placed in each well. The microplates were incubated on an orbital shaker for 150 min at 37 °C. […] The quantity of unreacted cortisol was determined using a cortisol ELISA kit DiaMetra.

Substance	% of 11β-HSD2 Inhibition 10 μM
2-(2-(1,2-Dicarba-closo-Dodecaboranylmethylene)Hydrazinyl)-4-(4-Nitrophenyl)Thiazole [4g]	32.55%
4-(4-Chlorophenyl)-2-(2-(1,2-Dicarba-closo-Dodecaboranylmethylene)Hydrazinyl)Thiazole [4a]	25.47%
2-(2-(1,2-Dicarba-closo-Dodecaboranylmethylene)Hydrazinyl)-4-(3,4-Dichlorophenyl)Thiazole [4e]	19.34%
